Test results as given in US20160081974A1, “COMPOSITION FOR PREVENTING OR TREATING EDEMA CONTAINING FLAVONOID COMPOUND” (Research & Business Foundation SUNGKYUNKWAN UNIVERSITY, priority 2014, published 2016).

Assays:
[1] = system: aP2 mRNA; assay: aP2 mRNA in lipedema tissue; format: in vivo, mouse; conditions: butein injected for 14 days
Protocol: (§1) Lymph nodes were removed from a mouse leg by a similar method to the method described in Example 1 to induce lipedema in the experimental animal, and an increase in edema was confirmed about 3 days after the removal of the lymph nodes.
(§2) In this example, to investigate a mechanism for inducing the reduction of lipedema, expression of an adipocyte-related marker that is easily found in lipedema was examined. An edema tissue was isolated after butein was injected into lipedema for 14 days, and mRNAs of adipocyte markers, PPAR-γ and aP2, isolated from total RNA were quantified, and the result is shown in FIG. 7. Referring to FIG. 7, it could be confirmed that butein reduced the expression of PPAR-γ and aP2. Therefore, it can be seen that the inhibition of adipocytes by the butein administration has an influence on lipedema reduction.

[2] = system: PPAR-γ mRNA; assay: PPAR-γ mRNA in lymphedema tissue by real time PCR; format: in vivo, mouse
Protocol: (§3) As mice, Outbred Mice ICR originating from Charles River Laboratories (Wilmington, Mass.) were used. 3 μl of 2% methylene blue as a staining dye for staining lymph nodes and lymphatic vessels was injected into the top of a right foot. After the injection, the right foot was massaged for about 3 minutes to allow a flow of the staining dye through lymphatic vessels to stain the lymphatic system. Zoletil50 (0.6 mg/kg) and Rompun (0.4 mg/kg), which are commercially provided by Bayer Korea, were administered as anesthetic drugs at the maximum content of 100 μl by intraperitoneal injection.
Specifically, a mouse was anesthetized with the anesthetic drugs (Zoletil50, Rompun), and its chest was shaved to facilitate a surgical operation and suturing, and observation. […]
In this example, to investigate a mechanism for inducing reduction in lymphedema, expression of an adipocyte-related marker greatly found in edema was examined. […] An edema tissue was collected, and mRNAs of adipocyte markers such as PPAR-γ and aP2 that are greatly found in edema were quantitatively analyzed by real time PCR, the result of which is shown in FIG. 2 (normal control: control group in which edema was not induced (n=3), edema+PBS: group into which PBS was injected after edema induction (n=4), edema+butein: group into which butein was injected after edema induction (15 mg/kg/day) (n=5)). […]

[3] = system: lymphedema-induced mouse; assay: Lymphedema reduction after subcutaneous injection for 5 days (leg images); format: in vivo; conditions: compared to control group
Protocol: as §3
Specifically, a mouse was anesthetized with the anesthetic drugs (Zoletil50, Rompun), and its chest was shaved to facilitate a surgical operation and suturing, and observation. A small amount (3 μl) of a 2% methylene blue solution was injected into the top of the right foot, and then the injected site was massaged for 3 minutes to allow the staining dye to spread well through the lymphatic vessels. To minimize inflammation which may be caused when lymph nodes in a groin region were excised and lymphatic vessels in a thigh were blocked, a minimum area of the right groin was incised open. Afterward, a superficial inguinal node and popliteal node, and a deep inguinal node, which were stained with methylene blue, were sequentially removed, and the stained lymphatic vessels in the right thigh were blocked using a soldering iron. Since 70 to 80% of the total lymphatic vessels were present in a subcutaneous region, the subcutaneous region in a suturing site was seared with the soldering iron to completely block the lymphatic system under the suturing site, and the right thigh was finally closed by suturing. About 3 days later, an increase in edema was confirmed.
Butein (15 mg/kg/day) was administered into an animal in which lymphedema was induced by lymph excision in Example 1 by subcutaneous injection for 5 days, and the result is shown in FIG. 3. […]

[4] = system: lipedema-induced mouse; assay: Lipedema size after injection into the edema site of lipedema-induced mice (caliper, thigh cross-sectional area); format: in vivo; conditions: 15 mg/kg/day injected into edema site, measured every day, versus untreated experimental group
Protocol: as §1
PBS (control) or butein (15 mg/kg/day) was injected into an edema site of the lipedema-induced mouse prepared in Example 5, and the edema size was measured every day.
A thigh area present between the knee and the trunk of the lipedema-induced site of the experimental animal was measured using a caliper. The cross-sectional area of lipedema was calculated from the width and length of the thigh and recorded, and thus a change in size of lipedema during observation was found.

[5] = system: PPAR-γ mRNA; assay: PPAR-γ mRNA in lipedema tissue; format: in vivo, mouse; conditions: butein injected for 14 days
Protocol: as §1, §2

[6] = system: lymphedema-induced mouse; assay: Lymphedema size after daily injection into the edema site of lymphedema-induced mice (caliper, thigh cross-sectional area); format: in vivo; conditions: measured every day, compared to control group
Protocol: as §3
Specifically, a mouse was anesthetized with the anesthetic drugs (Zoletil50, Rompun), and its chest was shaved to facilitate a surgical operation and suturing, and observation. A small amount (3 μl) of a 2% methylene blue solution was injected into the top of the right foot, and then the injected site was massaged for 3 minutes to allow the staining dye to spread well through the lymphatic vessels. […]
Each of PBS, hyaluronidase and butein was administered into an edema site of the mouse prepared in Example 1 at 15 mg per kg a day, and the size of edema was measured each day.
The cross-sectional area of lymphedema was calculated from the width and length of the thigh and recorded, and thus a change in size of lymphedema during observation was found.
Each of PBS, hyaluronidase and sulfuretin (15 mg/kg/day) was injected into an edema site of the mouse prepared in Example 1, and the size of edema was measured every day.
FIG. 8 illustrates the inhibition of lymphedema by sulfuretin, and the size measurement was performed on a thigh area present between the knee and the trunk of the lymphedema-induced site of the experimental animal using a caliper. The cross-sectional area of lymphedema was calculated from the width and length of the thigh and recorded, and thus a change in the lymphedema size that occurs in observation was found.
Each of PBS, hyaluronidase and isoflavone (100 mg/kg/day) was injected into an edema site of the mouse prepared in Example 1, and the size of edema was measured every day. […]

[7] = system: aP2 mRNA; assay: aP2 mRNA in lymphedema tissue by real time PCR; format: in vivo, mouse
Protocol: as §3
Specifically, a mouse was anesthetized with the anesthetic drugs (Zoletil50, Rompun), and its chest was shaved to facilitate a surgical operation and suturing, and observation. A small amount (3 μl) of a 2% methylene blue solution was injected into the top of the right foot, and then the injected site was massaged for 3 minutes to allow the staining dye to spread well through the lymphatic vessels. To minimize inflammation which may be caused when lymph nodes in a groin region were excised and lymphatic vessels in a thigh were blocked, a minimum area of the right groin was incised open. […]
In this example, to investigate a mechanism for inducing reduction in lymphedema, expression of an adipocyte-related marker greatly found in edema was examined. […] An edema tissue was collected, and mRNAs of adipocyte markers such as PPAR-γ and aP2 that are greatly found in edema were quantitatively analyzed by real time PCR, the result of which is shown in FIG. […]
In this example, to investigate a mechanism for inducing reduction in lymphedema, expression of an adipocyte-related marker easily found in edema was examined. […] An edema tissue was collected, and mRNAs of adipocyte markers such as PPAR-γ and aP2, which are greatly found in edema, were quantitatively analyzed by real time PCR, and the result is shown in FIG. […]

[8] = 15 mg/kg/day subcutaneous injection for 5 days
[9] = 15 mg/kg/day injected into edema site

SMILES	mRNA expression of aP2 in edema tissue [1]	mRNA expression of PPAR-γ in edema tissue ([2]; 15 mg/kg/day for 14 days)	size of lymphedema [3, 8]	edema size (lipedema) [4]	mRNA expression of PPAR-γ in edema tissue [5]	size of lymphedema [6, 9]	mRNA expression of aP2 in edema tissue ([7]; 15 mg/kg/day for 14 days)	mRNA expression of PPAR-γ in edema tissue ([2]; 100 mg/kg/day for 14 days)	size of lymphedema ([3]; 100 mg/kg/day subcutaneous injection for 5 days)	size of lymphedema ([6]; 100 mg/kg/day injected into edema site)	mRNA expression of aP2 in edema tissue ([7]; 100 mg/kg/day for 14 days)
O=C(/C=C/c1ccc(O)c(O)c1)c1ccc(O)cc1O [butein]	reduced	inhibits	significantly reduced	more rapidly and greatly reduced	reduced	significantly reduced	inhibits	–	–	–	–
O=c1c(-c2ccccc2)coc2ccccc12 [isoflavone]	–	–	–	–	–	–	–	inhibits	significantly reduced	significantly reduced	inhibits
O=C1/C(=C/c2ccc(O)c(O)c2)Oc2cc(O)ccc21 [sulfuretin]	–	–	significantly reduced	–	–	significantly reduced	inhibits	–	–	–	–
